Results as given in patent US20130324412A1, “N-ALKOXYAMIDES OF 6-(SUBSTITUTED PHENYL)-4-AMINOPICOLINATES AND 2-(SUBSTITUTED PHENYL)-6-AMINO-4-PYRIMIDINECARBOXYLATES AND THEIR USE AS SELECTIVE HERBICIDES FOR CROPS” (DOW AGROSCIENCES LLC, priority 2009, published 2013).

What was measured:
Type in all cases: in vivo
[1] = system: velvetleaf (Abutilon theophrasti); experiment: General postemergence herbicidal activity, velvetleaf; details: post-emergence, 336 h, 70 g ai/ha, postemergence, after 14 d, 0 = no injury, 100 = complete kill, read-out: ABUTH % Visual Injury
Outline: (§1)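 Greenhouse plants at first to second true leaf stage sprayed overhead at 187 L/ha in acetone/DMSO with crop oil concentrate and surfactant, at a high rate plus ½× to 1/16× serial dilutions. Injury rated visually after 14 d against solvent-blank controls, 0 (none) to 100% (complete kill).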

[2] = system: sicklepod (Casia obtusifolia); experiment: Postemergence herbicidal activity in corn, sicklepod; details: corn test, visual rating after 21 d, probit analysis, dose to kill or control 80 percent
Method: (§2) Seeds of corn and the desired weed species were planted in Sun Gro MetroMix 360 planting mixture, which typically has a pH of 6.0 to 6.8 and an organic matter content of about 30 percent, in plastic pots with a surface area of 95 cm^2. When required to ensure good germination and healthy plants, a fungicide treatment and/or other chemical or physical treatment was applied. The plants were grown for 7-21 d in a greenhouse with an approximate 15-h photoperiod which was maintained at about 23-29° C. during the day and 22-28° C. during the night. Nutrients and water were added on a regular basis and supplemental lighting was provided with overhead metal halide 1000-Watt lamps as necessary. The corn plants were utilized for testing when they reached the second true leaf stage. The weed species were utilized at the first or second true leaf stage.
(§3) A weighed amount, determined by the highest rate to be tested, of each test compound was dissolved in 4 mL of a 97:3 v/v mixture of acetone and DMSO to obtain concentrated stock solutions. […] The concentrated stock solutions obtained were diluted with 20 mL of an aqueous mixture containing acetone, water, isopropyl alcohol, DMSO, Atplus 411F crop oil concentrate, and Triton X-155 surfactant in a 48.5:39:10:1.5:1.0:0.02 v/v ratio to obtain spray solutions containing the highest application rates. […]
(§4) The treated plants and control plants were placed in a greenhouse as described above and watered by sub-irrigation to prevent wash-off of the test compounds. After 21 d, the condition of the test plants as compared with that of the untreated plants was determined visually and scored on a scale of 0 to 100 percent where 0 corresponds to no injury and 100 corresponds to complete kill. […]

corn (Zea mays) = experiment: Postemergence herbicidal activity in corn, crop; details: visual rating after 21 d, probit analysis, dose to kill or control 20 percent
Method: as §2, §3, §4

[3] = system: wild buckwheat (Polygonum convululus); experiment: General postemergence herbicidal activity, wild buckwheat; details: post-emergence, 336 h, 70 g ai/ha, postemergence, after 14 d, 0 = no injury, 100 = complete kill, read-out: POLCO % Visual Injury
Outline: as §1

[4] = system: lambsquarters (Chenopodium album); experiment: Postemergence herbicidal activity in corn, lambsquarters; details: corn test, visual rating after 21 d, probit analysis, dose to kill or control 80 percent
Method: as §2, §3, §4

COc1c(Cl)ccc(-c2cc(N)c(Cl)c(C(=O)NOCC(C)C)n2)c1F [Compound 1, 4-amino-3-chloro-6-(4-chloro-2-fluoro-3-methoxyphenyl)-N-(2-methylpropoxy)picolinamide]
pest or weed control at 70 g/ha [1]: 100%
CASOB GR80 [2]: 8.75 g ai/ha
ZEAMX GR20 (corn (Zea mays)): >35 g ai/ha
pest or weed control at 70 g/ha [3]: 100%
CHEAL GR80 [4]: <4 g ai/ha

CONC(=O)c1nc(-c2ccc(Cl)c(OC)c2F)cc(N)c1Cl [Compound 2, 4-Amino-3-chloro-6-(4-chloro-2-fluoro-3-methoxyphenyl)-N-methoxypicolinamide]
pest or weed control at 70 g/ha [1]: 100%
CASOB GR80 [2]: 17 g ai/ha
ZEAMX GR20 (corn (Zea mays)): >35 g ai/ha
pest or weed control at 70 g/ha [3]: 100%
CHEAL GR80 [4]: <4 g ai/ha
